The record followed here is patent US20120010290A1, “Methods of Treating an Overweight or Obese Subject” (priority 2008, published 2012).

The experiment deals with diet-induced obese C57BL/6NTac mice. Briefly: Weight loss study in diet-induced obese mice. The format is in vivo. As to conditions: oral 1.0 mg/kg in 10% gelucire in deionised water, once a day for 7 days; C57BL/6NTac mice on 60% fat diet; after 7 days. Here is the method:
A weight loss study was conducted in obese mice. The mice in this study were not genetically obese, but prior to and during the study, obesity was induced by a high-fat diet. Twelve week-old C57BL/6NTac mice, maintained on a 60% fat diet prior to and during the study, were separated into two groups, with eight animals per group. Average body weight of the mice was approximately 47 g at the start of the study.
One group was orally administered 1.0 mg/kg of compound H in 10% gelucire in deionised water, and one group was administered 10% gelucire in deionised water (vehicle). Compound H is as follows:
Mice received administrations once a day for 7 days. After 7 days, the average weight loss of mice administered compound H was 13.2%.

`CCN(CC)C/C=C\c1ccccc1S(=O)(=O)Nc1ccc2c(c1C(=O)O)CCCC2` [compound H] displayed an average weight loss of 13.2%.
